Reference: patent publication US6544727B1, “Methods and devices for the removal of psoralens from blood products” (Cerus Corporation, priority 1995, dated 2003)
Read-outs that look alike come from different tables or passages of the source.

Tests used:
[1] = HPLC retention time as rough estimate of hydrophobicity; format: physicochemical; conditions: C-18 reversed phase, methanol/KH2PO4 gradient
Protocol: Adsorption data were then obtained by HPLC analysis on the test and control samples. Specifically, a 200 μl sample volume of PC was removed from each tube following the incubation period (special care being taken to ensure that no adsorbent particles were removed with the test samples). […] The addition of methanol lyses platelets and precipitates plasma proteins so that psoralen contained within the platelets is not excluded by the assay.
Since each of the psoralens were analyzed using the same type of BPLC assay, one can use the psoralens' relative retention times to rank them according to increasing hydrophobicity. […] Strong interactions with cells or plasma proteins could compete with adsorption, thereby interfering with resin binding.

[2] = tested on: platelets; test: Platelet count, Sysmex cell counter; format: cell-based, human; conditions: 100 μM compound, 5 Joules/cm^2, Day 5; FIGS. 21A-24A
Protocol: Samples were diluted 1:3 in blood bank saline.

[3] = tested on: p-selectin (GMP140); test: GMP-140 (p-selectin) expression on platelets, flow cytometry with CD62; format: cell-based, human; conditions: 100 μM compound, 5 Joules/cm^2, 5 days storage; FIGS. 21C-24C
Protocol: To measure the effects of the present compounds and methods of decontamination on platelet function using these four indicators, four samples were prepared for each compound tested, two control samples and two containing compound. Three units of human platelets were obtained from the Sacramento Blood Center, Sacramento, Calif. These were each transferred under sterile conditions to 50 ml centrifuge tubes, then aliquots of each unit were transferred into a second set of 50 ml sterile centrifuge tubes. To each centrifuge tube containing platelet concentrate (PC), an aliquot of compound stock was added to reach a final concentration of 100 μM of compound. […] The samples were pipetted gently up and down to mix. Then aliquots (either 3 ml or 8 ml) of each sample was transferred to two sterile Teflon™ Medi-bags™ (American Fluoroseal Co., Silver Springs, Md.) (presently owned by The West Company, Lionville, Pa.). Samples were treated in one of two different sized bags, having either 3 ml or 8 ml capacity. […] For each compound tested, two control samples without compound were prepared by again removing aliquots of platelet concentrate (17 ml if using an 8 ml bag, […] if using a 3 ml bag) from the same one of the first set of 50 ml centrifuge tubes from which the compound sample was drawn, and dividing into Medibags, as before. One of each pair of Medibags containing a compound, and one of each pair of control Medibags, were illuminated for 5 Joules/cm^2 on the device described in Example 1, above. Then all experimental and control Medibags were placed on a platelet shaker for storage for 5 days. The same experiments were repeated several times to obtain more statistically meaningful data, as represented by “n”, the number of data points represented, in the graphs of FIGS. 21-24, discussed below.

[4] = tested on: HIV-1; conditions: 1 minute irradiation, starting titer approximately 5.4 logs (Table 11)
[5] = tested on: R17 bacteriophage; test: R17 bacteriophage inactivation at constant concentration, varying doses of UV light; format: cell-based; conditions: 1.0-3.0 J/cm^2, FIGS. 11-17
Protocol: Compounds of the present invention were also tested at a constant concentration for varying doses of UV light. Three sets of 1.5 mL tubes were prepared containing 0.6mL aliquots of R17 in DMEM (prepared as described above). The compound tested was added at the desired concentration and the samples were vortexed. The samples were then irradiated at intervals of 1.0 J/cm^2, until 3.0 J/cm^2 was reached. Between each 1.0 J/cm^2 interval, 100 μL was removed from each sample and placed in the first corresponding dilution tube, then five sequential dilutions were performed for each compound tested, at all 3 irradiation doses, as described above in this example.
Then 50 μL of Hfr 3000 bacteria was added to each tube, 3 mL of top agar was added and the tube contents were vortexed The contents of each tube was poured into its own LB plate and the plates were incubated overnight at 37° C. Plaques were counted by visual inspection the following morning.

[6] = tested on: mouse reticulocytes; conditions: increased dose levels in male Balb/c mice
Protocol: Male Balb/c mice were then injected with 0.1 ml of a compound solution via the tail vein. At least 3 mice were injected per dose level. Saline only was used as a negative control. For a positive control, cyclophosphamide (cycloPP) was administered at a dose of 30 mg/kg. In the experimental group, the injections were repeated once per day for four days. In the positive control group, the sample was administered only once, on day three. On day 5, several microliters of blood were withdrawn from each subject and smeared on a glass slide. Cells were fixed in absolute methanol and stored in a slide rack.
For analysis, cells were stained with acridine orange and visualized under a fluorescence microscope by counting: (i) the number of reticulocytes per 5000 erythrocytes; and (ii) the number of micronucleated reticulocytes per 1000 reticulocytes. Reticulocytes were distinguished by their red fluorescence due to the presence of RNA. Micronuclei were distinguished by their green fluorescence due to the presence of DNA. The percentage of reticulocytes (%PCE) was then calculated. A decrease in the frequency of […] in the percentage of reticulocytes, is an indication of bone marrow toxicity. The percentage of reticulocytes with micronuclei (%PCE with MN) was also calculated. An increase in %PCE with MN is a measure of clastogenicity.
After initial results were determined, the experiment was repeated using increased dose levels, until: (i) Micronucleus formation was seen; or (ii) Bone marrow toxicity was observed; or (iii) The lethal dose was reached; or (iv) A dose of 5 g/kg was administered.

[7] = tested on: R17 bacteriophage; test: R17 bacteriophage inactivation assay, varying compound concentration; format: cell-based; conditions: 32 μM; starting titer approx. 7.5 logs; 1 minute irradiation
Protocol: An r-17 bacteriophage assay was used in this example to predict pathogen inactivation efficiency and to determine nucleic acid binding of the photoreactive binding compounds of the present invention. In the r-17 assay, the bacteriophage was placed in a solution with each compound tested and was then irradiated. The ability of the phage to subsequently infect bacteria and inhibit their growth was measured. The bacteriophage was selected for its relatively accessible nucleic acid such that the culture growth inhibition would accurately reflect nucleic acid damage by the test compounds. The bacteriophage assay for nucleic acid binding to test compounds offers a safe and inexpensive procedure to identify compounds likely to display efficient pathogen inactivation.
The R17 was grown up in Hfr 3000 bacteria, approximate titer 5×10^11. (R17 and Hfr 3000 were obtained from American Tissue Culture Collection (ATCC), Washington, D.C.) The R17 phage stock was added to a solution of 15% fetal bovine serum in Dulbecco's Modified Eagles Medium (DMEM) to a final phage concentration of 10^9/mL. An aliquot (0.5 mL) was transferred to a 1.5 mL snap-top polyethylene tube. An aliquot (0.004-0.040 mL) of the test compound stock solution prepared in water, ethanol or dimethylsulfoxide at 0.80-8.0 mM was added to the tube. Compounds were tested at concentrations between 4 μM and 320 μM. […] The tubes were placed in a light device as described in EXAMPLE 1 and irradiated for between 1 and 10 minutes. Sterile 13 mL dilution tubes were prepared; each test compound required one tube with 0.4 mL of Luria broth (LB) and five tubes containing 0.5 mL of LB broth. To make the dilutions, a 0.100 mL aliquot of the irradiated solution of phage and test compound was added to the first dilution tube of 0.4 mL of media then 0.020 mL of this solution was added to the second tube of 0.5 mL medium (1:25). The second solution was then diluted serially (1:25) into the remaining tubes. To each diluted sample was added 0.050 mL of Hfr 3000 bacteria cultured overnight and 3 mL of molten LB top agar and the mixed materials were poured onto LB broth plates. After the top agar hardened, the plates were incubated at 37° C. overnight. The plaque forming units were then counted the following morning and the titer of the phage remaining after phototreatment was calculated based on the dilution factors.
The following controls were run: the “phage only” in which phage was not treated with test compound and not irradiated (listed as “starting titer” in the tables below); the “UV only” in which the phage was irradiated in the absence of test compound; and the “dark” control in which the phage/test compound solution was not irradiated before it was diluted and plated.

[8] = tested on: Pseudomonas; test: Bacterial inactivation, colony forming units; format: cell-based; conditions: 16 μM; 5 J/cm^2 irradiation; starting titer 6.5 logs
Protocol: The bacteria, a strain of Pseudomonas, was inoculated into LB with a sterile loop and grown overnight in a shaker at 37° C. Based on the approximation that one OD at 610 mn is equivalent to 5×10^8 colony forming units (cfu)/mL, a 1:10 dilution of the culture was measured on a spectrophotometer, (manufactured by Shimatsu). The bacterial culture was added to a solution of 15% fetal bovine serum in DMEM to a final bacteria concentration of approximately 10^6/mL. An aliquot (0.8 mL) was transferred to a 1.5 mL snap-top polyethylene tube. An aliquot (0.004-0.040 mL) of the test compound stock solution prepared in water, ethanol or dimethylsulfoxide at 0.80-8.0 mM was added to the tube. Compounds were tested at a concentration of 16 μM. The tubes were placed in a light device as described in EXAMPLE 1 and irradiated with 1.3 J/cm^2, 1.2 J/cm^2, and finally 2.5 J/cm^2, for a total of 5 J/cm^2. 150 μL were removed for testing after each pulse period. Sterile 13 mL dilution tubes were prepared; each test compound required one tube with 0.4 mL of LB broth and four tubes containing 0.5 mL of LB broth. […] The colony forming units were then counted the following morning and the titer of the phage remaining after phototreatment was calculated based on the dilution factors. […]

[9] = tested on: Salmonella typhimurium tester strains; test: Ames Salmonella dark mutagenicity test, overall assessment; format: cell-based; conditions: two-fold or greater increase in revertants above background and dose dependence
Protocol: A brief description for each procedure is given here. […] TA97a, TA98, TA1537 and TA1538 are frameshift tester strains. TA100 and TA102 are base-substitution tester strains.
This served as the background controls.
For all experiments, the pre-incubation procedure was used.

[10] = Adsorption capacity of Amberlite adsorbents for Psoralens A, B and C from PC (Table V); format: physicochemical; conditions: batch adsorption
Protocol: Stock solutions (15 mM) of each psoralen ([…], and C) were prepared in DMSO. […] Thereafter, control samples and test samples were prepared for HPLC analysis. Test samples were prepared by adding a 3.0 mL aliquot of each dilution to a 5 mL polypropylene tube containing 0.1 g of adsorbent; control samples were prepared in an analogous manner with the exception that the adsorbent was omitted. The test and control samples were then incubated for 6 hours at 22° C. by rotating gently on a mixer (Barnstead, Thermolyne Model 400110). […] Adsorption data were then obtained by HPLC analysis on the test and control samples. Specifically, a 200 μl sample volume of PC was removed from each tube following the incubation period (special care being taken to ensure that no adsorbent particles were removed with the test samples). […] The addition of methanol lyses platelets and precipitates plasma proteins so that psoralen contained within the platelets is not excluded by the assay. […] The slopes of the calibration curves were determined by linear least square method (y-intercept constrained to zero). […] The amount (μmoles) of psoralen which the adsorbent had removed from the PC was calculated [V(Co-Cf)]. […] As previously discussed, the slope of the adsorbent isotherm, K (L/g), is termed the adsorption constant and can be determined by a linear regression of the adsorption data.

COc1c2occc2c(Br)c2ccc(=O)oc12 [Psoralen B, 5-bromo-8-methoxypsoralen]
HPLC retention time (rough estimate of hydrophobicity) [1]: 20.0 min

CC[N+](CC)(CC)Cc1c(C)oc2c(C)c3oc(=O)cc(C)c3cc12 [Psoralen A, 4′-(triethylamino) methyl-4,5′,8-trimethylpsoralen]
HPLC retention time (rough estimate of hydrophobicity) [1]: 7.8 min

Cc1cc(=O)oc2c(C)c3oc(CNCCCCN)c(C)c3cc12 [Compound 17, 5′-(6-amino-2-aza)hexyl-4,4′,8-trimethylpsoralen]
platelet count, treated against controls (in words) [2]: higher platelet count than samples treated with light alone
GMP-140 expression, treated sample (PCD) against day 5 untreated control (in words) [3]: little or no difference
HIV Log Kill ([4]; 16 μM): 1.2 log
HIV Log Kill ([4]; 32 μM): 2.9 log
HIV Log Kill ([4]; 64 μM): 3.4 log
R17 inactivation efficiency compared with AMT (in words) [5]: more efficient at inactivating R17 than was AMT
bone marrow toxicity and micronucleus formation on dose escalation (in words) [6]: the acutely lethal dose was reached before there were any signs of bone marrow toxicity or micronucleus formation

COc1c2occc2cc2ccc(=O)oc12 [Compound 8-MOP, 8-Methoxypsoralen, reference compound]
R17 log kill (32 μM) [7]: 0 log
log kill of Pseudomonas [8]: 1.9 logs
mutagenic response in the Ames assay (in words) [9]: weak base-substitution mutagen in TA102 at 500 μg/plate

CCN(CC)CCCOc1c2occc2c(Br)c2ccc(=O)oc12 [Psoralen C, 5-bromo-8-(diethylaminopropyloxy)-psoralen]
ease of removal from PC (in words) [10]: most easily removed from PC
HPLC retention time (rough estimate of hydrophobicity) [1]: 12.0 min
